Reference: patent US6399614B1, “1-(N-phenylaminoalkyl)piperazine derivatives substituted at position 2 of the phenyl ring” (Recordati S.A. Chemical and Pharmaceutical Company, priority 1997, dated 2002)
pKi: −log10 of the molar value. Read-outs that look alike come from different tables or passages of the source. Each block holds one molecule with its values, some of them ahead of it.

Key:
[1] = target: T1, human 5-HT1A serotonergic receptor (Homo sapiens, UniProt P08908); assay: Radioreceptor binding, recombinant human 5-HT1A receptors ([3H]8-OH-DPAT, HeLa membranes); conditions: for pKi: recombinant human receptor, [3H]8-OH-DPAT, Ki from IC50 by Cheng & Prusoff, read-out: Binding affinity for the 5-HT1A receptor, Ki
T1 construct: expressed in transfected cells; host or cells: HeLa
T1 sequence (P08908 1-422): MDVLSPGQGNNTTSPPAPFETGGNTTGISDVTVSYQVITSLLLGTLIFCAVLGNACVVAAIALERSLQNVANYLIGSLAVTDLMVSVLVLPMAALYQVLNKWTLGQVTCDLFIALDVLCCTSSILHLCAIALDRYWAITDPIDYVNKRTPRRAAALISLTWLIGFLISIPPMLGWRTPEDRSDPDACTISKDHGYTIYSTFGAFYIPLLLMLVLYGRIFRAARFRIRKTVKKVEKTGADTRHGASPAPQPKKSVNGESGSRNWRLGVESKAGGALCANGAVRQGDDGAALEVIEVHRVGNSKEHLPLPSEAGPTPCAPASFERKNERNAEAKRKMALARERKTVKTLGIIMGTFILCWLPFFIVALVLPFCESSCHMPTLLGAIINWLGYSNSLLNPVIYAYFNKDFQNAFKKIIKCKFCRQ
In short: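 Membranes from HeLa cells stably transfected with human 5-HT1A clone G-21 incubated 30 min at 30° C with 0.2-1 nM [3H]8-OH-DPAT in 50 mM Tris HCl pH 7.4, 2.5 mM MgCl2, 10 μM pargiline; nonspecific binding with 10 μM 5-HT. Filtration assay; IC50 from curve fitting converted to Ki by Cheng-Prusoff.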

[2] = tested on: urinary bladder; assay: Cystometric parameters (cystometrogram) in conscious rats; assay type: in vivo, rat; conditions: for BVC after treatment / MP after treatment: mean ± S.E.; for change in vivo at 0.3 mg/kg / change in vivo at 1 mg/kg / change in vivo at 0.1 mg/kg: Rattus norvegicus, iv, 0.25 h, after vs before; for change in vivo at 0.3 mg/kg: i.v. 300 μg/kg; for change in vivo at 1 mg/kg: i.v. 1000 μg/kg; for change in vivo at 0.1 mg/kg: i.v. 100 μg/kg

SMILES: COc1ccccc1N1CCN(CCN(C(=O)C2CCCCC2)c2ccccc2)CC1 [Compound A, 1-(N-phenyl-N-cyclohexylcarbonyl-2-aminoethyl)-4-(2-methoxyphenyl)piperazine, reference compound]
- affinity for 5-HT1A receptors (in words) [1]: very high affinity
- BVC after treatment ([2]; 15 min after i.v. 300 μg/kg): 0.87 ± 0.05 mL
- MP after treatment ([2]; 15 min after i.v. 300 μg/kg): 85.6 ± 11.3 mmHg
- BVC after treatment ([2]; 15 min after i.v. 1000 μg/kg): 0.97 ± 0.11 mL
- MP after treatment ([2]; 15 min after i.v. 1000 μg/kg): 84.1 ± 5.2 mmHg
- change in vivo at 0.3 mg/kg ([2]; read-out: BVC % of change): 7.4%
- change in vivo at 0.3 mg/kg ([2]; read-out: MP % of change): -5.5%
- change in vivo at 1 mg/kg ([2]; read-out: BVC % of change): 24.4%
- change in vivo at 1 mg/kg ([2]; read-out: MP % of change): -6.8%
- i.v. dose at which a significant increase in BVC was observed ([2]; conscious rats, i.v.): 1.0 mg/kg

SMILES: COc1ccccc1N1CCN(CCN(C(=O)C2CCCCC2)c2ccccc2[N+](=O)[O-])CC1 [Example 2, 1-[N-(2-nitrophenyl)-N-cyclohexylcarbonyl-2-aminoethyl]-4-(2-methoxyphenyl) piperazine]
- affinity for 5-HT1A receptors (in words) [1]: very high affinity
- BVC after treatment ([2]; 15 min after i.v. 300 μg/kg): 0.87 ± 0.10 mL
- MP after treatment ([2]; 15 min after i.v. 300 μg/kg): 80.4 ± 6.5 mmHg
- BVC after treatment ([2]; 15 min after i.v. 1000 μg/kg): 0.75 ± 0.10 mL
- MP after treatment ([2]; 15 min after i.v. 1000 μg/kg): 99.6 ± 11.2 mmHg
- change in vivo at 0.3 mg/kg ([2]; read-out: BVC % of change): 22.5%
- change in vivo at 0.3 mg/kg ([2]; read-out: MP % of change): -15.7%
- change in vivo at 1 mg/kg ([2]; read-out: BVC % of change): 21%
- change in vivo at 1 mg/kg ([2]; read-out: MP % of change): -8.6%
- effect on MP (in words) ([2]; conscious rats, i.v.): slight, albeit significant, decrease in MP
- i.v. dose at which a significant increase in BVC was observed ([2]; conscious rats, i.v.): 0.3 mg/kg

Further lines, with some results ahead:

- pKi [1]: 9.30
SMILES: O=C(C1CCCCC1)N(CCN1CCN(c2cccc3[nH]ccc23)CC1)c1ccccc1[N+](=O)[O-] [Example 13, 1-[N-(2-nitrophenyl)-N-cyclohexylcarbonyl-2-aminoethyl]-4-(4-indolyl)piperazine]
- BVC after treatment ([2]; 15 min after i.v. 100 μg/kg): 1.07 ± 0.14 mL
- MP after treatment ([2]; 15 min after i.v. 100 μg/kg): 75.6 ± 13.7 mmHg
- BVC after treatment ([2]; 15 min after i.v. 300 μg/kg): 0.95 ± 0.12 mL
- MP after treatment ([2]; 15 min after i.v. 300 μg/kg): 65.7 ± 13.8 mmHg
- change in vivo at 0.1 mg/kg ([2]; read-out: BVC % of change): 13.4%
- change in vivo at 0.1 mg/kg ([2]; read-out: MP % of change): -12.5%
- change in vivo at 0.3 mg/kg ([2]; read-out: BVC % of change): 30.2%
- change in vivo at 0.3 mg/kg ([2]; read-out: MP % of change): -10.6%

- pKi [1]: 9.22
SMILES: COC(=O)c1ccccc1N(CCN1CCN(c2ccccc2OC)CC1)C(=O)C1CCCCC1 [Example 18, 1-[N-(2-methoxycarbonylphenyl)-N-cyclohexylcarbonyl-2-aminoethyl]-4-(2-methoxyphenyl)piperazine]
- BVC after treatment ([2]; 15 min after i.v. 100 μg/kg): 0.80 ± 0.09 mL
- MP after treatment ([2]; 15 min after i.v. 100 μg/kg): 48.5 ± 4.9 mmHg
- BVC after treatment ([2]; 15 min after i.v. 1000 μg/kg): 0.89 ± 0.16 mL
- MP after treatment ([2]; 15 min after i.v. 1000 μg/kg): 79.3 ± 17.0 mmHg
- change in vivo at 0.1 mg/kg ([2]; read-out: BVC % of change): 33.3%
- change in vivo at 0.1 mg/kg ([2]; read-out: MP % of change): -34.3%
- change in vivo at 1 mg/kg ([2]; read-out: BVC % of change): 40.3%
- change in vivo at 1 mg/kg ([2]; read-out: MP % of change): -13.5%

- pKi [1]: 9.85
SMILES: COc1ccccc1N1CCN(CCN(C(=O)C2CCCCC2)c2ccccc2OC)CC1 [Example 23, 1-[N-(2-methoxyphenyl)-N-cyclohexylcarbonyl-2-aminoethyl]-4-(2-methoxyphenyl)piperazine]
- BVC after treatment ([2]; 15 min after i.v. 300 μg/kg): 0.77 ± 0.03 mL
- MP after treatment ([2]; 15 min after i.v. 300 μg/kg): 86.4 ± 10.0 mmHg
- BVC after treatment ([2]; 15 min after i.v. 1000 μg/kg): 0.89 ± 0.12 mL
- MP after treatment ([2]; 15 min after i.v. 1000 μg/kg): 61.9 ± 8.5 mmHg
- change in vivo at 0.3 mg/kg ([2]; read-out: BVC % of change): 54.3%
- change in vivo at 0.3 mg/kg ([2]; read-out: MP % of change): -7.6%
- change in vivo at 1 mg/kg ([2]; read-out: BVC % of change): 34.5%
- change in vivo at 1 mg/kg ([2]; read-out: MP % of change): -17.1%
